Molecules are shown by their SMILES.

This test concerns the target T1, Y1 (Homo sapiens, UniProt P25929).
T1 construct: In this assay the cell line SK-N-MC was employed; endogenous in cells; host or cells: SK-N-MC cells (homogenate of scraped, pelleted cells), received from Sloane-Kettering Memorial Hospital
T1 sequence (P25929 1-384): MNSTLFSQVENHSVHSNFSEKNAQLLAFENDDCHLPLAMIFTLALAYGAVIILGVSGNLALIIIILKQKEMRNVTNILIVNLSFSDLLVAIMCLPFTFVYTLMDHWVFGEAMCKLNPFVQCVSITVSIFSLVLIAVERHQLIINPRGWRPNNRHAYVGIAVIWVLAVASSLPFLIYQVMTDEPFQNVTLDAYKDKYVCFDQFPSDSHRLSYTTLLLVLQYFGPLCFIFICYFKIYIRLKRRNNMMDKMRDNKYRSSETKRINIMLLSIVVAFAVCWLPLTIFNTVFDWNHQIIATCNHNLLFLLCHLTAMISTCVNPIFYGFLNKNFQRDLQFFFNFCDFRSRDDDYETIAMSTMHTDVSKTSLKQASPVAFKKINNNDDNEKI
The test is described as follows: Neuropeptide Y Binding Assay (125I-peptide YY, SK-N-MC cell homogenate). The note with it: displacement of 0.1 nM 125I-peptide YY, SK-N-MC cells, about two hours at room temperature. The protocol:
The biological activity of the compounds of the present invention was evaluated employing an initial screening assay which rapidly and accurately measured the binding of the tested compound to known neuropeptide Y receptor sites. Assays useful for evaluating neuropeptide Y receptor antagonists are well known in the art. See, e.g., U.S. Pat. No. 5,284,839, issued Feb. 8, 1994, which is herein incorporated by reference. See also, M. W. Walker, et al., Journal of Neurosciences, 8:2438-2446 (1988).
Neuropeptide Y Binding Assay
The ability of the compounds of the instant invention were assessed as to their ability to bind to neuropeptide Y using a protocol essentially as described in M. W. Walker, et al., supra. In this assay the cell line SK-N-MC was employed. This cell line was received from Sloane-Kettering Memorial Hospital, New York. These cells were cultured in T-150 flasks using Dulbecco's Minimal Essential Media (DMEM) supplemented with 5% fetal calf serum. The cells were manually removed from the flasks by scraping, pelleted, and stored at −70° C.
The pellets were resuspended using a glass homogenizer in 25 mM HEPES (pH 7.4) buffer containing 2.5 mM calcium chloride, 1 mM magnesium chloride, and 2 mg/L bacitracin. Incubations were performed in a final volume of 200 μl containing 0.1 nM ^125I-peptide YY (2200 Ci/mmol) and 0.2-0.4 mg protein for about two hours at room temperature.
Nonspecific binding was defined as the amount of radioactivity remaining bound to the tissue after incubating in the presence of 1 μM neuropeptide Y. In some experiments various concentrations of compounds were included in the incubation mixture.
Incubations were terminated by rapid filtration through glass fiber filters which had been presoaked in 0.3% polyethyleneimine using a 96-well harvester. The filters were washed with 5 ml of 50 mM Tris (pH 7.4) at 4° C. and rapidly dried at 60° C. The filters were then treated with melt-on scintillation sheets and the radioactivity retained on the filters were counted. The results were analyzed using various software packages. Protein concentrations were measured using standard coumassie protein assay reagents using bovine serum albumin as standards.

As for `O=C(c1ccc(OCCN2CCCC2)cc1)c1c(-c2ccc(O)cc2)sc2cc(O)ccc12`, the IC50 is around 10 µM.
To `COc1ccc2c(C(=O)c3ccc(OCCN4CCCCC4)cc3)c(-c3ccc(O)cc3)sc2c1` [R1=CH3, R2=1-piperidine, R3=H] belongs around 12 µM; to `O=C(c1ccc(OCCN2CCCCCC2)cc1)c1c(-c2ccc(O)cc2)sc2cc(O)ccc12` [R1=H, R2=1-hexamethylenimino, R3=H], around 20 µM; to `O=C(c1ccc(OCCN2CCCC2)cc1)c1c(-c2ccc(O)cc2)sc2cc(O)ccc12` [R1=H, R2=1-pyrrolidine, R3=H], around 17 µM.

Values taken from US6562862B1, “Methods of inhibiting physiological conditions associated with an excess of neuropeptide Y” (Eli Lilly and Company, priority 1994, dated 2003).
